Results taken from US8192962B2, “Processes for detecting toxic substances” (Daikin Industries, Ltd., priority 2001, dated 2012).

Test system: Metabolism protein genes
Assay: DNA chip mRNA expression in yeast, metabolism protein genes (Table 7)
Type: cell-based, Saccharomyces cerevisiae S288C
Description: Yeast (Saccharomyces cerevisiae S288C (α SUC2mal mel gap2 CUP1)) were incubated at 25° C. on YPD medium (yeast extract 1%, polypepton 2%, glucose 2%). One of toxic chemical substances was added to the cells at logarithmic growth phase, and the cells were further incubated for two hours. Cells were cultured without any chemical substance in the same condition, and were used as control. Concentrations of the chemical substances were defined to inhibit the growth of the yeast but not lead to death.
After completion of the incubation, the culture was centrifuged to collect the cells. To the cells, sodium acetate buffer (50 mM sodium acetate, 10 mM EDTA, 1% SDS) was added, and the mixture was shaken at 65° C. for five minutes, followed by returning to room temperature, and obtaining the supernatant, of which the procedures were repeated two times. To the supernatant, ½ amount of a solution of phenol/chloroform was added, and the mixture was centrifuged to give a supernatant, which was added with an equal amount of chloroform, and the mixture was centrifuged to give a supernatant. To the supernatant, an equal amount of isopropanol containing 0.3 M sodium acetate was added, and the mixture was allowed to stand at room temperature for 30 minutes, after which the mixture was centrifuged to give a sediment of the whole RNAs. Seventy % ethanol was added to the sediment, and the mixture was again centrifuged to give a sediment, which was then dried and dissolved in water. mRNA was isolated from the whole RNAs as followings. In view of the fact that a poly A chain is attached to the 3′ terminus of mRNA, a polynucleotide having a poly T structure which was immobilized on the surface of latex beads was used to trap the mRNA, and then the mRNA was washed and eluted with spine column (Oligotex-dT30<Super>mRNA Purification Kit, Takara). Reverse transcription of the mRNA was conducted with a reverse transcriptase (Super Script II Reverse Transcriptase; catalogue No. 18064-014, GibcoBRL) using fluorescence-labeled nucleotides to give cDNAs that were introduced with Cy3-dUTP or Cy5-dUTP during the reverse transcription.
The labeled cDNAs were dissolved in TE buffer (10mM Tris-HCl/1 mM EDTA, pH8.0), and the solution was dropped on the DNA chip containing the whole genes of yeast (DNA Chip Research Inc. Japan) so that the cDNAs were hybridized on the DNA chip at 65° C. for over 12 hours. The fluoresces intensity of the DNA chip was read with a scanner, and the ratio relative to the fluorescence intensity resulting from the absence of chemical substance was estimated as the following, which is shown in Tables 1 to 9: […]

**Q.** `S=C([S-])NCCNC(=S)[S-].[Zn+2]` [(11), zinc N,N′-ethylenebis(dithiocarbamate)] was tested. Which “The level of expressed mRNA in the presence of chemical substance/The level of expressed mRNA in the absence of chemical substance” value (yeast gene YAL012W) did it give?
**A.** 4.0

**Q.** What about the “The level of expressed mRNA in the presence of chemical substance/The level of expressed mRNA in the absence of chemical substance” value (yeast gene YAL038W) of the same compound?
**A.** 1.0

**Q.** What about the “level of expressed mRNA in the presence/in the absence of chemical substance” value (yeast gene YBR003W) of the same compound?
**A.** 1.3

**Q.** What about the “level of expressed mRNA in the presence/in the absence of chemical substance” value (yeast gene YBR011C) of the same compound?
**A.** 1.7

**Q.** What about the “level of expressed mRNA in the presence/in the absence of chemical substance” value (yeast gene YBR020W) of the same compound?
**A.** 1.0

**Q.** What about the “The level of expressed mRNA in the presence of chemical substance/The level of expressed mRNA in the absence of chemical substance” value (yeast gene YBR023C) of the same compound?
**A.** 0.9

**Q.** What about the “The level of expressed mRNA in the presence of chemical substance/The level of expressed mRNA in the absence of chemical substance” value (yeast gene YBR029C) of the same compound?
**A.** 0.7

**Q.** What about the “The level of expressed mRNA in the presence of chemical substance/The level of expressed mRNA in the absence of chemical substance” value (yeast gene YBR183W) of the same compound?
**A.** 1.9

**Q.** What about the “The level of expressed mRNA in the presence of chemical substance/The level of expressed mRNA in the absence of chemical substance” value (yeast gene YBR222C) of the same compound?
**A.** 1.3

**Q.** What about the “The level of expressed mRNA in the presence of chemical substance/The level of expressed mRNA in the absence of chemical substance” value (yeast gene YBR256C) of the same compound?
**A.** 3.2

**Q.** What about the “The level of expressed mRNA in the presence of chemical substance/The level of expressed mRNA in the absence of chemical substance” value (yeast gene YCL009C) of the same compound?
**A.** 1.5

**Q.** What about the “The level of expressed mRNA in the presence of chemical substance/The level of expressed mRNA in the absence of chemical substance” value (yeast gene YCL064C) of the same compound?
**A.** 1.8

**Q.** And the “level of expressed mRNA in the presence/in the absence of chemical substance” value (yeast gene YCR010C)?
**A.** 1.1

**Q.** And the “level of expressed mRNA in the presence/in the absence of chemical substance” value (yeast gene YCR034W)?
**A.** 0.8

**Q.** What about the “The level of expressed mRNA in the presence of chemical substance/The level of expressed mRNA in the absence of chemical substance” value (yeast gene YCR048W) of the same compound?
**A.** 1.2

**Q.** And the “The level of expressed mRNA in the presence of chemical substance/The level of expressed mRNA in the absence of chemical substance” value (yeast gene YCR098C)?
**A.** 1.3

**Q.** What about the “The level of expressed mRNA in the presence of chemical substance/The level of expressed mRNA in the absence of chemical substance” value (yeast gene YDR019C) of the same compound?
**A.** 1.8

**Q.** And the “level of expressed mRNA in the presence/in the absence of chemical substance” value (yeast gene YDR050C)?
**A.** 2.0

**Q.** What about the “level of expressed mRNA in the presence/in the absence of chemical substance” value (yeast gene YDR073W) of the same compound?
**A.** 1.0

**Q.** And the “level of expressed mRNA in the presence/in the absence of chemical substance” value (yeast gene YDR123C)?
**A.** 0.6

**Q.** What about the “level of expressed mRNA in the presence/in the absence of chemical substance” value (yeast gene YDR178W) of the same compound?
**A.** 2.0

**Q.** And the “level of expressed mRNA in the presence/in the absence of chemical substance” value (yeast gene YDR277C)?
**A.** 1.2

**Q.** And the “level of expressed mRNA in the presence/in the absence of chemical substance” value (yeast gene YDR284C)?
**A.** 1.3

**Q.** What about the “level of expressed mRNA in the presence/in the absence of chemical substance” value (yeast gene YDR345C) of the same compound?
**A.** 1.5

**Q.** What about the “The level of expressed mRNA in the presence of chemical substance/The level of expressed mRNA in the absence of chemical substance” value (yeast gene YDR380W) of the same compound?
**A.** 0.4

**Q.** And the “level of expressed mRNA in the presence/in the absence of chemical substance” value (yeast gene YDR400W)?
**A.** 1.3

**Q.** What about the “level of expressed mRNA in the presence/in the absence of chemical substance” value (yeast gene YDR408C) of the same compound?
**A.** 1.7

**Q.** And the “level of expressed mRNA in the presence/in the absence of chemical substance” value (yeast gene YDR483W)?
**A.** 1.4

**Q.** What about the “The level of expressed mRNA in the presence of chemical substance/The level of expressed mRNA in the absence of chemical substance” value (yeast gene YDR497C) of the same compound?
**A.** 0.7

**Q.** What about the “The level of expressed mRNA in the presence of chemical substance/The level of expressed mRNA in the absence of chemical substance” value (yeast gene YDR502C) of the same compound?
**A.** 1.3

**Q.** And the “The level of expressed mRNA in the presence of chemical substance/The level of expressed mRNA in the absence of chemical substance” value (yeast gene YDR516C)?
**A.** 2.8

**Q.** And the “level of expressed mRNA in the presence/in the absence of chemical substance” value (yeast gene YEL063C)?
**A.** 0.8

**Q.** And the “level of expressed mRNA in the presence/in the absence of chemical substance” value (yeast gene YER015W)?
**A.** 1.0

**Q.** And the “The level of expressed mRNA in the presence of chemical substance/The level of expressed mRNA in the absence of chemical substance” value (yeast gene YER026C)?
**A.** 0.9

**Q.** And the “The level of expressed mRNA in the presence of chemical substance/The level of expressed mRNA in the absence of chemical substance” value (yeast gene YER053C)?
**A.** 2.4

**Q.** What about the “The level of expressed mRNA in the presence of chemical substance/The level of expressed mRNA in the absence of chemical substance” value (yeast gene YER069W) of the same compound?
**A.** 1.5

**Q.** What about the “level of expressed mRNA in the presence/in the absence of chemical substance” value (yeast gene YER081W) of the same compound?
**A.** 1.1

**Q.** What about the “The level of expressed mRNA in the presence of chemical substance/The level of expressed mRNA in the absence of chemical substance” value (yeast gene YER096W) of the same compound?
**A.** 1.1

**Q.** And the “level of expressed mRNA in the presence/in the absence of chemical substance” value (yeast gene YER120W)?
**A.** 1.1

**Q.** And the “The level of expressed mRNA in the presence of chemical substance/The level of expressed mRNA in the absence of chemical substance” value (yeast gene YER178W)?
**A.** 2.5

**Q.** What about the “level of expressed mRNA in the presence/in the absence of chemical substance” value (yeast gene YFL011W) of the same compound?
**A.** 2.1

**Q.** What about the “The level of expressed mRNA in the presence of chemical substance/The level of expressed mRNA in the absence of chemical substance” value (yeast gene YFL014W) of the same compound?
**A.** 5.0

**Q.** What about the “The level of expressed mRNA in the presence of chemical substance/The level of expressed mRNA in the absence of chemical substance” value (yeast gene YFL030W) of the same compound?
**A.** 5.4

**Q.** What about the “The level of expressed mRNA in the presence of chemical substance/The level of expressed mRNA in the absence of chemical substance” value (yeast gene YFL031W) of the same compound?
**A.** 1.2

**Q.** What about the “The level of expressed mRNA in the presence of chemical substance/The level of expressed mRNA in the absence of chemical substance” value (yeast gene YFL056C) of the same compound?
**A.** 68.3

**Q.** And the “The level of expressed mRNA in the presence of chemical substance/The level of expressed mRNA in the absence of chemical substance” value (yeast gene YFL057C)?
**A.** 27.7
